According to patent publication US20100190694A1, “Methods for identifying patients who will respond well to cancer treatment” (priority 2009, published 2010):

Tested on: advanced solid tumors
Assay: Phase I study: efficacy by RECIST, treatment duration, TTP
Assay type: in vivo, human
Settings: Pat 101-6, esophageal adenoca, before study
Excerpt: Phase I dose-escalation, multi-center study with the objectives to assess: • maximum tolerated dose and dose limiting toxicities (DLT) of Bel in combination with FU • impact of Bel on expression of TS, dihydropyrimidine dehydrogenase (DPD), and p21, in tumor and non-tumor surrogate tissue (peripheral blood mononuclear cells; PBMC) • preliminary anti-tumor activity of Bel in combination with FU • impact of Bel on ECG parameters • pharmacokinetics (PK) of Bel when given in combination with FU
Treatment cycles of 21 days included Bel alone in cycle 1, and Bel in combination with FU in all subsequent cycles (FIG. 4). Treatment was to continue until significant treatment-related toxicity or progressive disease. […]
DLTs, i.e. grade ¾ non-hematologic toxicities and grade 4 neutropenia or thrombocytopenia, were determined in cycles 1 and 2. Safety was assessed by NCI CTC (v. 3) and efficacy by RECIST criteria. Expression of TS, DPD, and p21 mRNA was measured by RTQ-PCR in PBMC (20 patients at baseline, and pre-dosing, 6 and 24-hours post-dosing, on days 1 and 4 in cycle 1) and in tumor biopsies (8 patients at baseline and once on days 4 or 5 in cycle 1). Results were expressed as gene expression relative to actin (i.e. TS/Actin Relative Gene Expression, DPD/Actin Relative Gene Expression, and p21/Actin Relative Gene Expression).

## CC(=O)O[C@H]1C(=O)[C@@]2(C)[C@H]([C@H](OC(=O)c3ccccc3)[C@]3(O)C[C@H](OC(=O)[C@H](O)[C@@H](NC(=O)c4ccccc4)c4ccccc4)C(C)=C1C3(C)C)[C@]1(OC(C)=O)CO[C@@H]1C[C@@H]2O [paclitaxel]
  TTP on most recent prior line of therapy: (12.0 weeks)
